{"source": "ChEMBL document CHEMBL4477208", "about": "“Discovery and Rational Design of Pteridin-7(8H)-one-Based Inhibitors Targeting FMS-like Tyrosine Kinase 3 (FLT3) and Its Mutants” (J Med Chem, 2016)", "key": {"[1]": {"target": "Receptor-type tyrosine-protein kinase FLT3 (Homo sapiens, UniProt P36888, D835V)", "test": "Binding affinity to human partial length FLT3 D835V mutant (592 to 969 residues) expressed in mammalian expression system after 1 hr"}, "MV4-11 [2]": {"tested_on": "MV4-11", "test": "Cell cycle arrest in human MV4-11 cells assessed as accumulation at G2 phase at 1 nM after 48 hrs by PI/RNase staining based FACS analysis (reference value: 13.95%)", "type": "functional"}, "[3]": {"target": "Receptor-type tyrosine-protein kinase FLT3 (Homo sapiens, UniProt P36888, D835Y)", "test": "Binding affinity to human partial length FLT3 D835Y mutant (580 to 969 residues) expressed in bacterial expression system after 1 hr"}, "MV4-11 [4]": {"tested_on": "MV4-11", "test": "Induction of apoptosis in human MV4-11 cells assessed as late apoptotic cells at 10 nM after 48 hrs by annexin V/propidium iodide staining based FACS analysis (reference value: 3.01%)", "type": "functional"}, "[5]": {"target": "Receptor-type tyrosine-protein kinase FLT3 (Homo sapiens, UniProt P36888, D835H)", "test": "Binding affinity to human partial length FLT3 D835H mutant (592 to 969 residues) expressed in bacterial expression system after 1 hr"}, "MV4-11 [6]": {"tested_on": "MV4-11", "test": "cells", "conditions": "Homo sapiens, MV4-11, 72 h", "description": "Antiproliferative activity against human MV4-11 cells harboring FLT3-ITD mutant after 72 hrs by MTT assay"}, "MV4-11 [7]": {"tested_on": "MV4-11", "test": "Cell cycle arrest in human MV4-11 cells assessed as accumulation at S phase at 100 nM after 48 hrs by PI/RNase staining based FACS analysis (reference value: 16.50%)", "type": "functional"}, "MV4-11 [8]": {"tested_on": "MV4-11", "test": "Induction of apoptosis in human MV4-11 cells assessed as early apoptotic cells at 10000 nM after 48 hrs by annexin V/propidium iodide staining based FACS analysis (reference value: 6.31%)", "type": "functional"}, "MV4-11 [9]": {"tested_on": "MV4-11", "test": "Induction of apoptosis in human MV4-11 cells assessed as early apoptotic cells at 100 nM after 48 hrs by annexin V/propidium iodide staining based FACS analysis (reference value: 6.31%)", "type": "functional"}, "MCF7": {"tested_on": "MCF7", "test": "Antiproliferative activity against human MCF7 cells after 72 hrs by SRB assay", "type": "functional, cell-based", "conditions": "MCF7, 72 h"}, "MV4-11 [10]": {"tested_on": "MV4-11", "test": "Induction of apoptosis in human MV4-11 cells assessed as viable cells at 10 nM after 48 hrs by annexin V/propidium iodide staining based FACS analysis (reference value: 90.60%)", "type": "functional", "conditions": "MV4-11, 48 h, read-out: Activity"}, "[11]": {"test": "AUC (0 to infinity) in overnight fasted Sprague-Dawley rat plasma at 10 mg/kg administered via oral gavage up to 24 hrs by LC-MS/MS analysis", "type": "ADME, organism-based", "design": "dose 10 mg/kg, route oral, time infinity"}, "[12]": {"test": "Clearance in overnight fasted Sprague-Dawley rat plasma at 1 mg/kg, iv up to 24 hrs by LC-MS/MS analysis", "type": "ADME, organism-based"}, "MV4-11 [13]": {"tested_on": "MV4-11", "test": "Cell cycle arrest in human MV4-11 cells assessed as accumulation at G0/G1 phase after 48 hrs by PI/RNase staining based FACS analysis", "type": "functional"}, "MV4-11 [14]": {"tested_on": "MV4-11", "test": "Cell cycle arrest in human MV4-11 cells assessed as accumulation at S phase at 1000 nM after 48 hrs by PI/RNase staining based FACS analysis (reference value: 16.50%)", "type": "functional"}, "MV4-11 [15]": {"tested_on": "MV4-11", "test": "Cell cycle arrest in human MV4-11 cells assessed as accumulation at G0/G1 phase at 1000 nM after 48 hrs by PI/RNase staining based FACS analysis (reference value: 69.55%)", "type": "functional"}, "MV4-11 [16]": {"tested_on": "MV4-11", "test": "Induction of apoptosis in human MV4-11 cells assessed as necrotic cells at 10000 nM after 48 hrs by annexin V/propidium iodide staining based FACS analysis (reference value: 0.05%)", "type": "functional"}, "MV4-11 [17]": {"tested_on": "MV4-11", "test": "Antitumor activity against human MV4-11 cells xenografted in nude BALB/c mouse assessed as tumor growth inhibition administered orally qd for 14 days measured every 2 days", "type": "functional"}, "MV4-11 [18]": {"tested_on": "MV4-11", "test": "Antitumor activity against human MV4-11 cells xenografted in nude BALB/c mouse assessed as tumor growth inhibition at 50 mg/kg, ip qd for 14 days measured every 2 days", "type": "functional", "conditions": "MV4-11, ip, read-out: TGI"}, "[19]": {"target": "T1, Receptor-type tyrosine-protein kinase FLT3 (Homo sapiens, UniProt P36888)", "T1 sequence (P36888 whole entry)": "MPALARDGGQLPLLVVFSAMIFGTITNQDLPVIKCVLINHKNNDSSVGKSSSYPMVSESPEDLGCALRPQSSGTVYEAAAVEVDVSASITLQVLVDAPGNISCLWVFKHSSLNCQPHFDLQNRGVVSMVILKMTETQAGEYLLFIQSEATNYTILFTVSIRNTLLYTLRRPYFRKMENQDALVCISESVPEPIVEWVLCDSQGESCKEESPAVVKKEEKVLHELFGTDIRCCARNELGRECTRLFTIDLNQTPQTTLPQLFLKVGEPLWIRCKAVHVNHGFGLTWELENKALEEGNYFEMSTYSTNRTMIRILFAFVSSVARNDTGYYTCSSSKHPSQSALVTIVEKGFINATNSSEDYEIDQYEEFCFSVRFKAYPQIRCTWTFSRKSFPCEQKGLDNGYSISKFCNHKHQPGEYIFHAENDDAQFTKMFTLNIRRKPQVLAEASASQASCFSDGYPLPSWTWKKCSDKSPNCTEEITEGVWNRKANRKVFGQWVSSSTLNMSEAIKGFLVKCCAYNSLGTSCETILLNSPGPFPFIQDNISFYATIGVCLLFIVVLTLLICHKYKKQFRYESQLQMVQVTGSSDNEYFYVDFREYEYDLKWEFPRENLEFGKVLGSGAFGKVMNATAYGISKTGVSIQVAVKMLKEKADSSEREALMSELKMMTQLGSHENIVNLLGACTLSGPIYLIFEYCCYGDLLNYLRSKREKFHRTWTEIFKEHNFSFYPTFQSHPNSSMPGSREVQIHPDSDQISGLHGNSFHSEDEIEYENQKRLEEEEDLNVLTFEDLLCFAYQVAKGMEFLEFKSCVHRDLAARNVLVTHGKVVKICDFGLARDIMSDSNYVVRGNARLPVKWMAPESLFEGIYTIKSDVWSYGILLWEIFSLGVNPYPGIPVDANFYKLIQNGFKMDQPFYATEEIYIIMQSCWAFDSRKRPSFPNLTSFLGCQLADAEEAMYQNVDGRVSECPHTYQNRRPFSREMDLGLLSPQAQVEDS", "test": "Binding affinity to auto-inhibited human partial length wild type FLT3 (564 to 969 residues) expressed in mammalian expression system after 1 hr"}, "MV4-11 [20]": {"tested_on": "MV4-11", "test": "Cell cycle arrest in human MV4-11 cells assessed as accumulation at G2 phase at 1000 nM after 48 hrs by PI/RNase staining based FACS analysis (reference value: 13.95%)", "type": "functional"}, "[21]": {"target": "Receptor-type tyrosine-protein kinase FLT3 (Homo sapiens, UniProt P36888, F691L/ITD)", "test": "Binding affinity to human partial length FLT3 ITD/F691L mutant expressed in mammalian expression system after 1 hr"}, "HCT-116": {"tested_on": "HCT-116", "test": "Antiproliferative activity against human HCT116 cells after 72 hrs by SRB assay", "type": "functional, cell-based", "conditions": "HCT-116, 72 h"}, "RKO": {"tested_on": "RKO", "test": "Antiproliferative activity against human RKO cells after 72 hrs by SRB assay", "type": "functional, cell-based"}, "WI-38": {"tested_on": "WI-38", "test": "cells", "conditions": "Homo sapiens, WI-38, 72 h", "description": "Antiproliferative activity against human WI38 cells after 72 hrs by SRB assay"}}, "data": [{"smiles": "Cc1cc(Nc2ncc3ncc(=O)n(-c4ccc(N)cc4)c3n2)ccc1N1CCN(C)CC1", "values": [{"measurement": "Kd", "setting": "[1]", "value": 0.25, "unit": "nM"}, {"measurement": "Activity", "setting": "MV4-11 [2]", "value": 12.59, "unit": "%"}, {"measurement": "Kd", "setting": "[3]", "value": 2, "unit": "nM"}, {"measurement": "Activity", "setting": "MV4-11 [4]", "value": 3.34, "unit": "%"}, {"measurement": "Kd", "setting": "[5]", "value": 1.8, "unit": "nM"}, {"measurement": "IC50", "setting": "MV4-11 [6]", "value": 51, "unit": "nM"}, {"measurement": "Activity", "setting": "MV4-11 [7]", "value": 2.06, "unit": "%"}, {"measurement": "Activity", "setting": "MV4-11 [8]", "value": 68.6, "unit": "%"}, {"measurement": "Activity", "setting": "MV4-11 [9]", "value": 23, "unit": "%"}, {"measurement": "IC50", "setting": "MCF7", "value": "> 10000", "unit": "nM"}, {"measurement": "viability at 0.01 µM", "setting": "MV4-11 [10]", "value": 86.9, "unit": "%"}, {"measurement": "AUC(0-inf)", "setting": "[11]", "value": 311, "unit": "ng·h/mL"}, {"measurement": "clearance", "setting": "[12]", "value": 142, "unit": "mL/min/kg"}, {"measurement": "Activity", "setting": "MV4-11 [13]", "value": "Dose-dependent effect"}, {"measurement": "Activity", "setting": "MV4-11 [14]", "value": 3.07, "unit": "%"}, {"measurement": "Activity", "setting": "MV4-11 [15]", "value": 80.55, "unit": "%"}, {"measurement": "Activity", "setting": "MV4-11 [16]", "value": 0.02, "unit": "%"}, {"measurement": "TGI", "setting": "MV4-11 [17]", "value": "Dose-dependent effect"}, {"measurement": "inhibition in vivo at 50 mg/kg", "setting": "MV4-11 [18]", "value": 136, "unit": "%"}, {"measurement": "Kd", "setting": "[19]", "value": 79, "unit": "nM"}, {"measurement": "Activity", "setting": "MV4-11 [20]", "value": 0, "unit": "%"}, {"measurement": "Kd", "setting": "[21]", "value": 5.7, "unit": "nM"}, {"measurement": "IC50", "setting": "HCT-116", "value": 2360, "unit": "nM"}, {"measurement": "IC50", "setting": "RKO", "value": 1930, "unit": "nM"}, {"measurement": "IC50", "setting": "WI-38", "value": 4120, "unit": "nM"}]}]}
